Assay results from the supplement of paper PMC10307832.

Tests used:
Test in all cases: relative viability (nuclei count vs DMSO), 5 days (fraction); higher = more cells survive
Pazopanib + AZD7762 = compound: Cc1ccc(Nc2nccc(N(C)c3ccc4c(C)n(C)nc4c3)n2)cc1S(N)(=O)=O [Pazopanib] + NC(=O)Nc1cc(-c2cccc(F)c2)sc1C(=O)N[C@H]1CCCNC1 [AZD7762] (partner 0.2 µM)
In short: (§1)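 Relative viability equals treated-well nuclei counts divided by vehicle-well nuclei counts. Counts came from 4× images of lung cancer cell lines grown in 1536-well plates for 5 days after pin-tool dosing on the day after seeding. Dosing used one drug alone or a fixed anchor-drug dose plus five library-drug doses (not always all listed) in √10 steps, and values are medians of duplicate plates.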

Ponatinib + Pictilisib = compound: Cc1ccc(C(=O)Nc2ccc(CN3CCN(C)CC3)c(C(F)(F)F)c2)cc1C#Cc1cnc2cccnn12 [Ponatinib] + CS(=O)(=O)N1CCN(Cc2cc3nc(-c4cccc5[nH]ncc45)nc(N4CCOCC4)c3s2)CC1 [Pictilisib] (partner 1 µM)
In short: as §1

Ponatinib + Decitabine = compound: Cc1ccc(C(=O)Nc2ccc(CN3CCN(C)CC3)c(C(F)(F)F)c2)cc1C#Cc1cnc2cccnn12 [Ponatinib] + Nc1ncn([C@H]2C[C@H](O)[C@@H](CO)O2)c(=O)n1 [Decitabine] (partner 2 µM)
In short: as §1

Pazopanib + Trametinib = compound: Cc1ccc(Nc2nccc(N(C)c3ccc4c(C)n(C)nc4c3)n2)cc1S(N)(=O)=O [Pazopanib] + CC(=O)Nc1cccc(-n2c(=O)n(C3CC3)c(=O)c3c(Nc4ccc(I)cc4F)n(C)c(=O)c(C)c32)c1 [Trametinib] (partner 0.02 µM)
In short: as §1

Cell Line	relative viability (Pazopanib + AZD7762; first compound 0.01 µM)	relative viability (Pazopanib + AZD7762; first compound 0.03162 µM)	relative viability (Pazopanib + AZD7762; first compound 0.1 µM)	relative viability (Pazopanib + AZD7762; first compound 0.3162 µM)	relative viability (Pazopanib + AZD7762; first compound 1 µM)	relative viability (Ponatinib + Pictilisib; first compound 0.002 µM)	relative viability (Ponatinib + Pictilisib; first compound 0.006325 µM)	relative viability (Ponatinib + Pictilisib; first compound 0.06325 µM)	relative viability (Ponatinib + Pictilisib; first compound 0.2 µM)	relative viability (Ponatinib + Decitabine; first compound 0.002 µM)	relative viability (Ponatinib + Decitabine; first compound 0.006325 µM)	relative viability (Ponatinib + Decitabine; first compound 0.06325 µM)	relative viability (Ponatinib + Decitabine; first compound 0.2 µM)	relative viability (Pazopanib + Trametinib; first compound 0.01 µM)	relative viability (Pazopanib + Trametinib; first compound 0.03162 µM)	relative viability (Pazopanib + Trametinib; first compound 0.1 µM)	relative viability (Pazopanib + Trametinib; first compound 0.3162 µM)	relative viability (Pazopanib + Trametinib; first compound 1 µM)
LC-2-ad	0.834	0.835	0.906	0.92	0.85	0.353	0.239	0.191	0.207	0.738	0.684	0.696	0.582	0.905	0.934	0.89	0.915	0.858
LCLC-97TM1		0.241	0.248	0.303	0.188		0.243		0.221	0.205	0.242	0.214	0.248		0.218	0.203	0.209	0.279
LCLC-103H	0.576	0.805	0.897	0.792	0.822	0.543	0.592	0.636	0.572	0.713	0.693	0.759	0.722	0.589	0.725	0.68	0.646	0.723
LK-2	0.283	0.411	0.398	0.451	0.354	0.589	0.555	0.411	0.446	0.301	0.312	0.273	0.274	0.643	0.788	0.562	0.565	0.755
LOU-NH91	0.653	0.758	0.78	0.836	0.815	0.554	0.567	0.512	0.521	0.778	0.788	0.868	0.766	0.721	0.769	0.848	0.795	0.822
LU99A		0.347	0.466	0.343	0.384	0.303	0.335	0.369	0.329	0.803	0.968	0.992	0.789		0.622	0.632	0.597	0.595
LXF-289	1.26	1.15	1.12	1.11	1.06	0.737	0.795	0.883	0.777	0.388	0.359	0.36	0.379	0.691	0.675	0.717	0.71	0.706
NCI-H23	0.223	0.257	0.221	0.374	0.271	0.588	0.592	0.571	0.44	0.286	0.313	0.332	0.297	0.342	0.438	0.364	0.515	0.55
NCI-H322M	0.559	0.539	0.617	0.617	0.669	0.523	0.522	0.53	0.536	0.681	0.688	0.736	0.629	0.513	0.471	0.482	0.452	0.489
NCI-H358	0.484	0.571	0.693	0.633	0.558	0.318	0.429	0.369	0.331	0.193	0.326	0.221	0.204	0.145	0.134	0.124	0.167	0.141
NCI-H441	1.31	1.14	1.08	1.09	1.12	0.608	0.48	0.49	0.313	0.228	0.246	0.271	0.267	0.5	0.445	0.474	0.563	0.734
NCI-H460	0.766	0.619	0.551	0.637	0.597	0.383	0.441	0.469	0.452	0.533	0.471	0.559	0.454	0.087	0.16	0.283	0.108	0.287
NCI-H596	0.925	1.1	1.03	1.16	1.03	0.354	0.401	0.36	0.374	0.925	0.999	0.984	1	0.798	1.02	0.808	0.814	0.915
NCI-H647	0.373	0.635	0.469	0.428	0.546	0.381	0.449	0.434	0.376	0.319	0.369	0.429	0.407	0.377	0.48	0.487	0.609	0.439
NCI-H650	0.948	1.07	1.09	0.942	0.904	0.843	0.739	0.758	0.88	0.296	0.319	0.341	0.299	0.942	0.918	0.984	1.13	1.13
NCI-H727	0.618		0.609	0.663	0.562	0.367	0.514	0.356	0.333	0.909	1.01	0.838	0.933	0.395		0.393	0.359	0.4
NCI-H838	1.04	0.911	1.04	0.909	0.946	0.564	0.505	0.455	0.455	0.417	0.475	0.458	0.487	0.465	0.558	0.483	0.599	0.594
NCI-H1355	0.71	0.802	0.827	0.727	0.719	0.408	0.59	0.563	0.568	0.335	0.355	0.399	0.346	0.363	0.409	0.397	0.446	0.534

Cell Line	relative viability (Pazopanib + AZD7762; first compound 0.01 µM)	relative viability (Pazopanib + AZD7762; first compound 0.03162 µM)	relative viability (Pazopanib + AZD7762; first compound 0.1 µM)	relative viability (Pazopanib + AZD7762; first compound 0.3162 µM)	relative viability (Pazopanib + AZD7762; first compound 1 µM)	relative viability (Ponatinib + Pictilisib; first compound 0.002 µM)	relative viability (Ponatinib + Pictilisib; first compound 0.006325 µM)	relative viability (Ponatinib + Pictilisib; first compound 0.06325 µM)	relative viability (Ponatinib + Pictilisib; first compound 0.2 µM)	relative viability (Ponatinib + Decitabine; first compound 0.002 µM)	relative viability (Ponatinib + Decitabine; first compound 0.006325 µM)	relative viability (Ponatinib + Decitabine; first compound 0.06325 µM)	relative viability (Ponatinib + Decitabine; first compound 0.2 µM)	relative viability (Pazopanib + Trametinib; first compound 0.01 µM)	relative viability (Pazopanib + Trametinib; first compound 0.03162 µM)	relative viability (Pazopanib + Trametinib; first compound 0.1 µM)	relative viability (Pazopanib + Trametinib; first compound 0.3162 µM)	relative viability (Pazopanib + Trametinib; first compound 1 µM)
NCI-H1395	0.36	0.366	0.389	0.38	0.387		0.696	0.657	0.581	0.816	0.714	0.682	0.615	0.833	1.14	1.05	1.01	0.952
NCI-H1437	1.05	1.13	1.19	1.03	1.03	0.445	0.479	0.495	0.406	0.498	0.548	0.606	0.593	0.525	0.531	0.454	0.575	0.509
NCI-H1651	0.438	0.451	0.484	0.437	0.435	0.61	0.728	0.552	0.634	0.613	0.704	0.615	0.665	0.833	0.831	0.814	0.808	0.862
NCI-H1666	0.871	0.828	0.788	0.823	0.848	0.534	0.436	0.48	0.702	0.752	0.745	0.812	0.766	0.925	0.893	0.899	0.884	1
NCI-H1734	0.519	0.561	0.555	0.689	0.623	0.421	0.456	0.414	0.365	0.477	0.459	0.524	0.429	0.669	0.697	0.671	0.612	0.626
NCI-H1755	0.434	0.433	0.453	0.42	0.439	0.502	0.535	0.505	0.391	0.701	0.73	0.719	0.639	0.685	0.748	0.799	0.723	0.767
NCI-H1792		0.704	0.701	0.67	0.662	0.241	0.347	0.388	0.284	0.476	0.488	0.516	0.495		0.432	0.418	0.349	0.443
NCI-H1793		0.674	0.481	0.593	0.44	0.335	0.344	0.206	0.356	0.451	0.526	0.561	0.499		0.425	0.411	0.404	0.502
NCI-H1915	0.716	0.658	0.667	0.68	0.616	0.892	0.98	1.03	1.03	0.244	0.274	0.246	0.257	0.294	0.312	0.355	0.336	0.347
NCI-H1944	0.442	0.504	0.595	0.571	0.555	0.319	0.407	0.403	0.374	0.422	0.433	0.482	0.43	0.389	0.387	0.407	0.453	0.433
NCI-H1975	0.612	0.667	0.637	0.76	0.692	0.311	0.309	0.408	0.353	0.386	0.425	0.413	0.437	0.277	0.323	0.369	0.373	0.401
NCI-H1993		0.789	0.734	0.883	0.645	0.804	0.805	0.73	0.868	0.549	0.583	0.671	0.61		0.451	0.576	0.438	0.512
NCI-H2085	0.98	0.988	0.928	0.952	1.06	0.489	0.477	0.451	0.488	0.541	0.58	0.613	0.565	0.44	0.518	0.568	0.574	0.592
NCI-H2087	1.36	1.23	1.47	1.18	1.12	0.879	0.831	0.933	0.787	0.186	0.294	0.338	0.264	0.223	0.261	0.192	0.174	0.242
NCI-H2126	0.963	0.947	1.07	0.959	1.04	0.513	0.504	0.587	0.617	0.587	0.585	0.667	0.545	0.506	0.503	0.599	0.563	0.577
NCI-H2170	0.744	0.967	0.94	0.896	0.815	0.325	0.322	0.351	0.354	0.508	0.481	0.467	0.431	0.909	0.909	0.949	0.97	0.919
NCI-H2347	0.682	0.711	0.773	0.822	0.787	0.677	0.849	0.692	0.414	0.663	0.571	0.614	0.605	0.211	0.281	0.303	0.282	0.281
NCI-H2405	0.718	0.772	0.702	0.751	0.74	0.388	0.574	0.497	0.403	0.762	0.754	0.821	0.685	0.562	0.672	0.666	0.644	0.524
